Laboratory results published in the METLIN SMRT retention time set (Domingo-Almenara et al. 2019).

Experiment: gradient 5% acetonitrile 3 min, to 50% in 2 min, to 85% in 15 min, held 3 min, 100 µL/min
Settings: column: Zorbax Extend-C18 2.1 x 50 mm; eluents: water / acetonitrile, 0.1% formic acid
Procedure, shortened: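 Values are retention times taken from adduct peaks that software picked and an analyst inspected. The pure standards were run as mixtures of ~100 molecules on HPLC linked to a quadrupole time-of-flight mass spectrometer, in positive and negative ionization mode. A Zorbax Extend-C18 column (2.1 × 50 mm, 1.8 μm) was used at 100 μL/min with water and acetonitrile, each including 0.1% formic acid.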

Cc1cccc(CN2CCCn3nc(C(=O)NC4CC4)cc3C2=O)c1
RP-LC retention time: 744 s

CC(C)c1cccc(NC(=O)Cn2cnc3nc(N4CCCC(C(=O)NC5CC5)C4)sc3c2=O)c1 (stereo not drawn)
RP-LC retention time: 723 s

O=C1COc2ccc(Cl)cc2N1Cc1nc(-c2ccc(F)cc2)no1
RP-LC retention time: 1070 s

c1ccc(C(O[C@@H]2CCCN(CCc3ccc4c(c3)OCO4)C2)c2ccccc2)cc1
RP-LC retention time: 961 s

CCN1C(=O)Cc2cc(C(=O)N3CCN(c4ccccn4)CC3)ccc21
RP-LC retention time: 780 s

Cn1c(=O)c2ccn(CC(=O)N3CCN(c4ccccc4F)CC3)c2n(C)c1=O
RP-LC retention time: 851 s

CC[C@@H](CO)NC(=O)[C@@H]1C=C2c3cccc4[nH]cc(c34)C[C@H]2N(C)C1
RP-LC retention time: 616 s

COC(=O)c1cc(S(=O)(=O)N2CCCC2C(=O)Nc2ccc(C)cc2C)cn1C (stereo not drawn)
RP-LC retention time: 915 s

COCCN(CC(=O)N1CCc2sccc2C1COc1ccccc1C)C(=O)CC(C)C (stereo not drawn)
RP-LC retention time: 973 s

Cc1ccc(C)c(C(=O)Nc2cccn3nc(C(C)C)nc23)c1
RP-LC retention time: 1010 s

CCN1C(=O)c2cccnc2Sc2cc(CNC(=O)c3ccc(F)cc3)ccc21
RP-LC retention time: 765 s

Cc1nc2c(NC(=O)c3cccs3)cccn2n1
RP-LC retention time: 690 s

COc1ccc(NS(=O)(=O)c2cc3n(c2)CCN(CC(C)C)C3=O)cc1Cl
RP-LC retention time: 828 s

O=C(NCC(O)(c1ccccc1)C(F)(F)F)C(=O)Nc1ccon1 (stereo not drawn)
RP-LC retention time: 738 s

CCn1nc(C(=O)Nc2nnc(-c3cc4ccccc4o3)o2)cc1C
RP-LC retention time: 770 s

COCCNC(=O)C1Cn2cccc2C(=O)N1CC(C)C (stereo not drawn)
RP-LC retention time: 624 s

COc1ccccc1NC(=O)CN1CCN(Cc2ccc(C)cc2)C(=O)C1=O
RP-LC retention time: 771 s

CC(C)C(=O)N1CCC2(CC1)CCC(O)(CN(C)C)CC2
RP-LC retention time: 559 s

Cc1c(Cl)cccc1NC(=O)Cn1c(=O)n(-c2ccccc2)c(=O)c2c1cc(C)n2C
RP-LC retention time: 927 s

CS(=O)(=O)N1CCN(C(=O)CCCn2nc(-c3ccc(F)cc3)ccc2=O)CC1
RP-LC retention time: 652 s

O=C(c1ccc(OCC2CCCN2C(=O)C2CCCCC2)cc1)N1CCCC1 (stereo not drawn)
RP-LC retention time: 888 s

CCN1CCN(c2cc(C)c3cc(NC(=O)c4cc(-c5ccco5)nc5ccccc45)ccc3n2)CC1
RP-LC retention time: 599 s

Cc1ccc(-c2noc(CN3N=NC4C(=O)N(c5ccccc5)C(=O)C43)n2)cc1C (stereo not drawn)
RP-LC retention time: 1020 s

CCc1ccccc1S(=O)(=O)N1CCN(c2nc3ccncc3n(C(C)C)c2=O)CC1
RP-LC retention time: 632 s

Cc1nc2c(ccc3nc(NC(=O)c4ccc5c(c4)OCCO5)sc32)s1
RP-LC retention time: 858 s

Cc1ccc(Nc2c(-c3ccc(O)cc3)nc3c(C)cccn23)cc1
RP-LC retention time: 676 s

Cc1ccn2c(Nc3ccccc3C)c(-c3c(F)cccc3Cl)nc2c1
RP-LC retention time: 766 s

O=C(NC1CCCCC1)c1ccc(-n2cccn2)nc1
RP-LC retention time: 815 s

Cc1nn2c(CNS(=O)(=O)c3cccc(Cl)c3C)c(-c3ccccc3)nc2s1
RP-LC retention time: 942 s

Cc1ccc(C)c(CN2CCn3c(nn(C)c3=O)C2)c1
RP-LC retention time: 747 s

CCc1noc(NC(C)=O)c1-c1ccc(C)c(S(=O)(=O)NC2CCC(C)CC2)c1 (stereo not drawn)
RP-LC retention time: 937 s

Cc1ccc(NC(=O)Cn2c(N)nc(C)cc2=O)c(C)c1
RP-LC retention time: 617 s

Clc1cccc(-c2nc3ccc(Cl)cn3c2Nc2ccc3c(c2)OCO3)c1
RP-LC retention time: 978 s

COc1cc(C2C(C(=O)N3CCOCC3)=C(C)NC3=C2C(=O)CCC3)cc(Br)c1O (stereo not drawn)
RP-LC retention time: 607 s

CC(=O)N1CCc2cc(-c3ccc(C(=O)N4CCN(c5ncccn5)CC4)cc3)ccc21
RP-LC retention time: 771 s

CC1CCN(CC2CCCN(C(=O)C3(c4ccccc4)CC3)CC2)CC1 (stereo not drawn)
RP-LC retention time: 660 s

COc1ccccc1OCC(=O)N1CCc2cc(-c3csc(C)n3)ccc21
RP-LC retention time: 954 s

CN(Cc1ccccc1)C(=O)CCSC1CCc2ccccc2NC1=O (stereo not drawn)
RP-LC retention time: 798 s

COC(=O)C1=C(C)N(C2CCCC2)C(=O)C1(NC(=O)c1cccc(OC)c1)C(F)(F)F (stereo not drawn)
RP-LC retention time: 1010 s

COCc1cc(=O)n(CC(=O)Nc2cc(C)ccc2C)c(N2CCOCC2)n1
RP-LC retention time: 844 s

CCC1CCCCN1CCCNC(=O)C1CCN(c2ncnc3onc(C)c23)CC1 (stereo not drawn)
RP-LC retention time: 579 s

Cn1nc(C(=O)Nc2ccccc2)c2c1CCN(C(=O)NCc1ccco1)C2
RP-LC retention time: 760 s

Cc1sc(NC(=O)Cc2csc(-c3ccccc3)n2)nc1-c1ccc(Br)cc1
RP-LC retention time: 1270 s

O=C(Cc1cn2cc(F)ccc2n1)Nc1ccccc1
RP-LC retention time: 580 s

CC(=O)c1ccc(NC(=O)Cn2nc3c(N(C)C4CCCCC4)nccn3c2=O)cc1
RP-LC retention time: 705 s

COc1cccc(-n2c(N3CCCC(C(=O)NCc4cccs4)C3)nc3ccsc3c2=O)c1 (stereo not drawn)
RP-LC retention time: 822 s

c1cncc(CN2CCC(n3ncc4c(N5CCOCC5)nc(-c5ccc6[nH]ccc6c5)nc43)CC2)c1
RP-LC retention time: 675 s

Cc1noc(COC2CCCN(C(=O)CCc3c(C)noc3C)C2)n1 (stereo not drawn)
RP-LC retention time: 678 s

CC(=O)Nc1ccc(C(=O)N(C2CC2)C2(C(=O)NCc3ccccc3)CCN(C(C)=O)CC2)cc1
RP-LC retention time: 692 s

CCNC(=O)c1cc(-c2ccccc2)n(C)c1C
RP-LC retention time: 805 s

COC1C(=O)N(CC2CC2)C12CCN(Cc1ccc(F)c(F)c1)CC2 (stereo not drawn)
RP-LC retention time: 623 s

CC(C)(C)n1c(=O)c2ccc(F)cc2n1CC(=O)N1CCN(c2ccccc2)CC1
RP-LC retention time: 1180 s

CCCn1c(=O)sc2cc(S(=O)(=O)N3CCC(C(=O)Nc4ccc(F)cc4C)CC3)ccc21
RP-LC retention time: 974 s

Cc1cccc(NS(=O)(=O)c2cc3c(s2)CCN(C(=O)C2CCC2)C3)c1C
RP-LC retention time: 942 s

CCCc1cc(N2CCN(C(=O)c3cccnc3)CC2)nc2nnc(CC)n12
RP-LC retention time: 580 s

CCc1nnc(NS(=O)(=O)c2ccc(NC(=O)c3ccc(Cl)s3)cc2)s1
RP-LC retention time: 821 s

Cc1ccccc1N1CCN(c2ncnc3scc(-c4cccs4)c23)CC1
RP-LC retention time: 992 s

Cc1ccc(-c2csc(Nc3c(C)n(C)n(-c4ccccc4)c3=O)n2)cc1
RP-LC retention time: 788 s

Cc1ccc(CCC(=O)Nc2nc(-c3ccc4c(c3)NC(=O)C(C)O4)cs2)cc1 (stereo not drawn)
RP-LC retention time: 973 s

COc1cc(NC(=O)c2nnn(-c3cc(OC)cc(OC)c3)c2C)cc(OC)c1
RP-LC retention time: 1050 s

Cc1ccc(CNC(=O)C2CCN(c3cn[nH]c(=O)c3)CC2)cc1
RP-LC retention time: 644 s

Cc1[nH]c(C)c(S(=O)(=O)N2CCC(C(=O)NC3CCC(C)CC3)CC2)c1C(=O)N1CCCCC1 (stereo not drawn)
RP-LC retention time: 778 s

Cc1ccc(CC(=O)N2CCC3(CC2)NC(=O)c2cc(C)ccc2N3C)cc1
RP-LC retention time: 852 s

Cc1ccc(-n2nc(C)c3sc(N4CCCC(C(=O)NC(C)CCc5ccccc5)C4)nc32)cc1 (stereo not drawn)
RP-LC retention time: 1300 s

CC(C)(C)c1ccc(S(=O)(=O)N2CCCC2c2nc(-c3ccc(F)cc3)no2)cc1 (stereo not drawn)
RP-LC retention time: 1310 s

Cn1ncc2c(N3CCOCC3)nc(C(=O)NCCc3cccs3)nc21
RP-LC retention time: 710 s

O=C(Cn1cccc1-c1nc(-c2ccc3c(c2)OCO3)no1)Nc1cccc(Cl)c1
RP-LC retention time: 1060 s

CC(C)OCCCNC(=O)C1CCCN(c2nc3ccccc3n(Cc3ccccc3)c2=O)C1 (stereo not drawn)
RP-LC retention time: 1070 s

Cc1ccc(-c2nc(C)c(C(=O)N3CCCC3)s2)cc1
RP-LC retention time: 906 s

Cc1cc(C2CCCN2C(=O)Nc2ccccc2Cl)no1 (stereo not drawn)
RP-LC retention time: 802 s

CC(C)NC(=O)CCC(=O)N1CCc2c(c(C(=O)N3CCCCC3)nn2C)C1
RP-LC retention time: 617 s

COc1ccccc1N1CCN(c2ncc3c(n2)CCN(Cc2cccc(F)c2)C3)CC1
RP-LC retention time: 808 s

Cc1nn(C)cc1S(=O)(=O)Nc1ccc(C(F)(F)F)cc1
RP-LC retention time: 753 s

COC(=O)c1cccc(Nc2c(-c3cccc(Cl)c3)nc3cnccn23)c1
RP-LC retention time: 905 s

Cc1cc(C)c2[nH]c3c(c(=O)c2c1)CN(CC(=O)Nc1cc(F)cc(F)c1)CC3
RP-LC retention time: 673 s

CC(C)(C)C(=O)Nc1ccc(N2CCC(N3CCCCC3)CC2)cc1C(=O)O
RP-LC retention time: 615 s

CCCNC(=O)C1CCN(c2ccc(SCC(=O)Nc3ccc(C)cc3)nn2)CC1
RP-LC retention time: 645 s

O=C(CCn1nnc2cc(-c3noc(Cc4ccc(Cl)cc4)n3)ccc21)N1CCOCC1
RP-LC retention time: 878 s

CC(=O)N1CCC(n2c(C)nc(C(=O)Nc3ccc4c(c3)OCCO4)c2C)CC1
RP-LC retention time: 612 s

O=C([C@@H]1C[C@H](F)CN1S(=O)(=O)Cc1ccccc1)N1CCOCC1
RP-LC retention time: 692 s

CCN1CCCn2cc(S(=O)(=O)Nc3ccc(OC)c(Cl)c3)cc2C1=O
RP-LC retention time: 740 s

CC(=O)Nc1cccc(C(C(F)(F)F)C(F)(F)F)c1
RP-LC retention time: 778 s

CCc1ccccc1NC(=O)Cn1nc(N2CCOCC2)c2ccccc2c1=O
RP-LC retention time: 744 s

COc1cccc(C(=O)Nc2c(-c3ccc(F)cc3)nc3ccccn23)c1OC
RP-LC retention time: 667 s

COCCN1C(=O)c2ccccc2C(C(=O)NCCc2ccc(OC)cc2)C12CCCC2 (stereo not drawn)
RP-LC retention time: 807 s

Cc1sc(C)c(S(=O)(=O)N2CCCCC2)c1-c1cc(C(F)(F)F)on1
RP-LC retention time: 1210 s

Cc1nn(-c2ccccc2)c(C)c1CCc1nn2c(-c3ccccc3F)nnc2s1
RP-LC retention time: 865 s

CC(C)N1C(=O)Cc2ccccc2C1C(=O)NCc1ccc(F)cc1 (stereo not drawn)
RP-LC retention time: 796 s
